Assay results reported in PMC4853826 (European heart journal. Cardiovascular pharmacotherapy, 2015).
Where “and” joins values, the source holds several entries; their conditions need not be identical. Identical values can stand only once.

Legend:
normal canines = experiment: In vivo renal function, peptide infusion in normal canines; set-up: species or system canine; conditions: for RBF / GFR / DFRNa (distal fractional reabsorption of Na+) / PFRNa (proximal fractional reabsorption of Na+) / MAP: SEM
neprilysin (NEP) = conditions: cited from earlier work
[1] = Post-I (after 30-min washout), lithium clearance, mean ± SEM
[2] = Pre-I (prior to infusion, baseline), lithium clearance technique, mean ± SEM
[3] = normal canines, infusion 32 mmol/kg/min

In the case of “CNP: native C-type natriuretic peptide, 22 amino acids, selective pGC-B activator”, the RBF (normal canines; 30 min I (16th-45th min of infusion, 32 mmol/kg/min), mean ± SEM) is reported as 294 ± 31 mL/min, the RBF (normal canines; 60 min I (46th-75th min of infusion, 32 mmol/kg/min), mean ± SEM) is reported as 278 ± 29 mL/min and the GFR (normal canines; Post-I (after 30-min washout), inulin clearance, mean ± SEM) is reported as 48.8 ± 5.6 mL/min. For the same substance, the “DFRNa (distal fractional reabsorption of Na+)” value (normal canines; [1]) was 97±0.8%, the “PFRNa (proximal fractional reabsorption of Na+)” value (normal canines; [1]) was 73±2% and the RBF (normal canines; Post-I (after 30-min washout), mean ± SEM) was 270 ± 25 mL/min. For the same substance, the RBF (normal canines; Pre-I (prior to infusion, baseline), electromagnetic flow probe, mean ± SEM) was 273 ± 26 mL/min, the “DFRNa (distal fractional reabsorption of Na+)” value (normal canines; [2]) was 98±0.6% and the “PFRNa (proximal fractional reabsorption of Na+)” value (normal canines; [2]) was 80±3%. For the same substance, the MAP (normal canines; dog, in vivo, iv) was 127±4 mmHg and 128±4 mmHg, the GFR (normal canines; dog, in vivo) was 52.3 ± 5.1 mL/min and the MAP (normal canines; dog, in vivo) was 123±4 mmHg and 128±4 mmHg. For the same substance, the “net renal generation of cGMP (in words)” value (normal canines; [3]) was “unchanged”, the “plasma cGMP (in words)” value (normal canines; [3]) was “modestly increased” and the “urinary cGMP excretion (in words)” value (normal canines; [3]) was “unchanged”. The “susceptibility to enzymatic degradation by NEP (in words)” value (neprilysin (NEP)) was “highly susceptible”.
